Laboratory results taken from patent US20240228489A1, “POSITIVE ALLOSTERIC MODULATORS OF THE MUSCARINIC ACETYLCHOLINE RECEPTOR M1” (Vanderbilt University, priority 2021, published 2024).
pEC50: −log10 of the molar value.

Legend:
human mAChR M1 [1] = biological target: T1, human mAChR M1 (Homo sapiens, UniProt P11229); test: mAChR M1 cell-based functional assay (calcium mobilization), PAM mode: increase in the EC20 acetylcholine response
T1 sequence (P11229 1-460): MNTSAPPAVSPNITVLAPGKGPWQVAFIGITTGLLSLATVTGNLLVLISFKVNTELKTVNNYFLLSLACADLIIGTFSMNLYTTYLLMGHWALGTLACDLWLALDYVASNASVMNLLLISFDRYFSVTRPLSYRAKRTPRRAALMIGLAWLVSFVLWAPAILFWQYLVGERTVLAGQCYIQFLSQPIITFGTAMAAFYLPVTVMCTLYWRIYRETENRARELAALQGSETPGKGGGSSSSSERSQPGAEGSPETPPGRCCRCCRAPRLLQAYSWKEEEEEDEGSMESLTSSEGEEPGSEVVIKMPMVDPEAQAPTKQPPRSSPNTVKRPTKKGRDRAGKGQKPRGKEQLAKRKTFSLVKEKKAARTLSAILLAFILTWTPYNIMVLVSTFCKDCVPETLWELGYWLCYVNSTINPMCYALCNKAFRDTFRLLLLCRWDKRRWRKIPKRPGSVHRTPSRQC
How it was run: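 PAM readout is the concentration-dependent rise in the EC20 acetylcholine calcium signal, fitted to a four-parameter logistic (EC50, Emax). Compounds were preincubated from 4 s before ACh at 144 s (EC20) and 230 s (EC80). hM1-expressing CHO-K1 cells loaded with Fluo-4, FDSS ratio read.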

human mAChR M1 [2] = biological target: T1, human mAChR M1; test: mAChR M1 cell-based functional assay (calcium mobilization), agonist mode: compound alone, Emax relative to acetylcholine maximum; conditions: for Agonist Activity Human M1 EC50 / pEC50: human mAChR M1; for Emax: relative to the maximum for acetylcholine
How it was run: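 Agonist activity is the concentration-dependent rise in intracellular calcium (Fluo-4, 1 Hz read) after compound addition, measured before any acetylcholine was added, in stable hM1 CHO-K1 cells. Curves were 11-point, 1:3 dilutions fitted by four-parameter logistic. Emax is given as a fraction of maximal acetylcholine response.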

SMILES	pEC50 (human mAChR M1 [1])	Emax (human mAChR M1 [1]) [%]	Agonist Activity Human M1 EC50 (human mAChR M1 [2])	Emax (human mAChR M1 [2]) [%]	pEC50 (human mAChR M1 [2])
[2H]C1([2H])c2ncccc2C(=O)N1Cc1c(F)cc(-c2ccc(OC(C)C)c3c2cnn3C([2H])([2H])[2H])cc1F [Compound 250, 6-(2,6-difluoro-4-(7-isopropoxy-1-(methyl-d3)-1H-indazol-4-yl)benzyl)-6,7-dihydro-5H-pyrrolo[3,4-b]pyridin-5-one-7,7-d2]	< 5.00	51	Inactive	3	
[2H]C1([2H])c2ncccc2C(=O)N1Cc1c(F)cc(-c2ccc(OC)c3nn(C)cc23)cc1F [Compound 39, 6-(2,6-difluoro-4-(7-methoxy-2-methyl-2H-indazol-4-yl)benzyl)-6,7-dihydro-5H-pyrrolo[3,4-b]pyridin-5-one-7,7-d2]	6.95	85	Inactive	9	
[2H]C1([2H])c2ncccc2C(=O)N1Cc1c(F)cc(-c2ccc(S(C)(=N)=O)c3nn(C)cc23)cc1F (stereo not shown) [Compound 182, 6-(2,6-difluoro-4-(2-methyl-7-(S-methylsulfonimidoyl)-2H-indazol-4-yl)benzyl)-6,7-dihydro-5H-pyrrolo[3,4-b]pyridin-5-one-7,7-d2]	6.23	87	Inactive	3	
[2H]C1([2H])c2ncccc2C(=O)N1Cc1ccc(-c2ccc3nn(C)cc3c2C)cc1F [Compound 242, 6-(4-(2,4-dimethyl-2H-indazol-5-yl)-2-fluorobenzyl)-6,7-dihydro-5H-pyrrolo[3,4-b]pyridin-5-one-7,7-d2]	< 5.00	43	Inactive	3	
[2H]C1([2H])c2ncccc2C(=O)N1Cc1ccc(-c2cccc3nn(C)cc23)cc1C [Compound 29, 6-(2-methyl-4-(2-methyl-2H-indazol-4-yl)benzyl)-6,7-dihydro-5H-pyrrolo[3,4-b]pyridin-5-one-7,7-d2]	6.20	81		33	5.10
[2H]C1([2H])c2ncccc2C(=O)N1Cc1c(F)cc(-c2cc(F)cc3nn(C)cc23)cc1F [Compound 59, 6-(2,6-difluoro-4-(6-fluoro-2-methyl-2H-indazol-4-yl)benzyl)-6,7-dihydro-5H-pyrrolo[3,4-b]pyridin-5-one-7,7-d2]	6.65	59	Inactive	2	
[2H]C1([2H])c2ncccc2C(=O)N1Cc1c(F)cc(-c2cc(F)c(F)c3c2cnn3C([2H])([2H])[2H])cc1F [Compound 252, 6-(4-(6,7-difluoro-1-(methyl-d3)-1H-indazol-4-yl)-2,6-difluorobenzyl)-6,7-dihydro-5H-pyrrolo[3,4-b]pyridin-5-one-7,7-d2]	< 5.00	15	Inactive	2	
[2H]C1([2H])c2ncccc2C(=O)N1Cc1c(F)cc(-c2cc(F)c(Cl)c3nn(C([2H])([2H])[2H])cc23)cc1F [Compound 248, 6-(4-(7-chloro-6-fluoro-2-(methyl-d3)-2H-indazol-4-yl)-2,6-difluorobenzyl)-6,7-dihydro-5H-pyrrolo[3,4-b]pyridin-5-one-7,7-d2]	< 5.00	34	Inactive	2	
[2H]C([2H])([2H])Oc1cnc2c(c1)C(=O)N(Cc1c(F)cc(-c3ccc4nn(C)cc4c3)cc1F)C2([2H])[2H] [Compound 112, 6-(2,6-difluoro-4-(2-methyl-2H-indazol-5-yl)benzyl)-3-(methoxy-d3)-6,7-dihydro-5H-pyrrolo[3,4-b]pyridin-5-one-7,7-d2]	7.12	63	Inactive	2	
[2H]C1([2H])c2ncccc2C(=O)N1Cc1ccc(-c2cccc3nn(C)cc23)cc1C(C)C [Compound 233, 6-(2-isopropyl-4-(2-methyl-2H-indazol-4-yl)benzyl)-6,7-dihydro-5H-pyrrolo[3,4-b]pyridin-5-one-7,7-d2]	≤ 5.00	43	Inactive	1	

Results, then the molecule that gave them:

pEC50 (human mAChR M1 [1])	Emax (human mAChR M1 [1]) [%]	Agonist Activity Human M1 EC50 (human mAChR M1 [2])	Emax (human mAChR M1 [2]) [%]	pEC50 (human mAChR M1 [2])	SMILES
6.58	84		28	5.07	[2H]C1([2H])c2ncccc2C(=O)N1Cc1c(F)cc(-c2cccc3nn(C([2H])([2H])[2H])cc23)cc1F [Compound 31, 6-(2,6-Difluoro-4-(2-(methyl-d3)-2H-indazol-4-yl)benzyl)-6,7-dihydro-5H-pyrrolo[3,4-b]pyridin-5-one-7,7-d2]
7.00	77	Inactive	6		[2H]C([2H])([2H])Oc1cnc2c(c1)C(=O)N(Cc1c(F)cc(-c3cccc4nn(C([2H])([2H])[2H])cc34)cc1F)C2([2H])[2H] [Compound 78, 6-(2,6-difluoro-4-(2-(methyl-d3)-2H-indazol-4-yl)benzyl)-3-(methoxy-d3)-6,7-dihydro-5H-pyrrolo[3,4-b]pyridin-5-one-7,7-d2]
6.27	84	Inactive	8		[2H]C1([2H])c2ncccc2C(=O)N1Cc1c(F)cc(-c2cccc3nn(C)cc23)cc1F [Compound 1, 6-(2,6-difluoro-4-(2-methyl-2H-indazol-4-yl)benzyl)-6,7-dihydro-5H-pyrrolo[3,4-b]pyridin-5-one-7,7-d2]
6.50	82	Inactive	5		[2H]C1([2H])c2ncccc2C(=O)N1Cc1c(F)cc(-c2cccc3nn(C)cc23)cc1Cl [Compound 166, 6-(2-chloro-6-fluoro-4-(2-methyl-2H-indazol-4-yl)benzyl)-6,7-dihydro-5H-pyrrolo[3,4-b]pyridin-5-one-7,7-d2]
< 5.00	39	Inactive	2		[2H]C1([2H])c2ncccc2C(=O)N1Cc1ccc(-c2ccc3nn(C)cc3c2C)cc1 [Compound 238, 6-(4-(2,4-dimethyl-2H-indazol-5-yl)benzyl)-6,7-dihydro-5H-pyrrolo[3,4-b]pyridin-5-one-7,7-d2]
5.93	86		2	< 5.00	[2H]C1([2H])c2ncccc2C(=O)N1Cc1c(F)cc(-c2cccc3nn(C(C)C)cc23)cc1F [Compound 43, 6-(2,6-difluoro-4-(2-isopropyl-2H-indazol-4-yl)benzyl)-6,7-dihydro-5H-pyrrolo[3,4-b]pyridin-5-one-7,7-d2]
6.58	88		11	5.01	[2H]C1([2H])c2ncccc2C(=O)N1Cc1c(F)cc(-c2ccc3nn(C)cc3c2)cc1C1CC1 [Compound 193, 6-(2-cyclopropyl-6-fluoro-4-(2-methyl-2H-indazol-5-yl)benzyl)-6,7-dihydro-5H-pyrrolo[3,4-b]pyridin-5-one-7,7-d2]
6.36	83		18	5.45	[2H]C1([2H])c2ncccc2C(=O)N1Cc1c(C)cc(-c2ccc3nn(C)cc3c2)cc1F [Compound 194, 6-(2-fluoro-6-methyl-4-(2-methyl-2H-indazol-5-yl)benzyl)-6,7-dihydro-5H-pyrrolo[3,4-b]pyridin-5-one-7,7-d2]
6.91	82		52	5.34	[2H]C1([2H])c2ncccc2C(=O)N1Cc1c(F)cc(-c2ccc(O)c3nn(C)cc23)cc1F [Compound 130, 6-(2,6-Difluoro-4-(7-hydroxy-2-methyl-2H-indazol-4-yl)benzyl)-6,7-dihydro-5H-pyrrolo[3,4-b]pyridin-5-one-7,7-d2]
< 5.00	27	Inactive	2		[2H]C1([2H])c2ncccc2C(=O)N1Cc1c(F)cc(-c2cnc(OC)c3c2cnn3C)cc1F [Compound 253, 6-(2,6-difluoro-4-(7-methoxy-1-methyl-1H-pyrazolo[3,4-c]pyridin-4-yl)benzyl)-6,7-dihydro-5H-pyrrolo[3,4-b]pyridin-5-one-7,7-d2]
< 5.00	58	Inactive	4		[2H]C1([2H])c2ncccc2C(=O)N1Cc1ccc(-c2ccn3ccnc3c2)cc1 [Compound 19, 6-(4-(imidazo[1,2-a]pyridin-7-yl)benzyl)-6,7-dihydro-5H-pyrrolo[3,4-b]pyridin-5-one-7,7-d2]
5.87	82	Inactive	2		[2H]C1([2H])c2ncccc2C(=O)N1Cc1c(F)cc(-c2ccc(OC3CN(C(=O)OC(C)(C)C)C3)c3nn(C)cc23)cc1F [Compound 173, tert-butyl 3-((4-(3,5-difluoro-4-((5-oxo-5,7-dihydro-6H-pyrrolo[3,4-b]pyridin-6-yl-7,7-d2)methyl)phenyl)-2-methyl-2H-indaazol-7-yl)oxy)azetidine-1-carboxylate]
